Reference: patent publication US4749690A, “Treatment of allergy with thymopentin” (Ortho Pharmaceutical Corporation, priority 1986, dated 1988)
Entries after “also recorded” stand apart in the source; their conditions may differ. No end group written: not given here.

Tests used:
T lymphocytes = conditions: background art; cited from earlier work
[1] = system: patients with Ragweed Hay Fever; assay: double-blind placebo-controlled phase II study, patient-diary hay fever symptom counts; type: in vivo, human; conditions: for Average # Weekly Symptoms, Severe / Average # Weekly Symptoms, Total / Average # Weekly Symptoms, Mild: average per subject over weeks 3-12; for hay fever symptoms compared with placebo group (in words): 12 weeks
From the text: Each group was given a subcutaneous injection three times a week and an intravenous injection once a week; in the first group the first injection was thymopentin while the second was placebo, in the second group the first injection was placebo and the second thymopentin, while in the third group both injections were placebo. […] The application of the present invention is illustrated by the clinical study on thymopentin in the treatment of patients with Ragweed Hay Fever given in the Example which follows. Thirty (30) patients with a proven history of ragweed hay fever, who fulfill all of the inclusion criteria and none of the exclusion criteria, were enrolled in this single site study. This invention was a placebo-controlled phase II safety and efficacy study of Thymopentin (TP5) in the treatment of patients with Ragwood Hay Fever. Thirty (30) patients were assigned to either TP5 or placebo according to a double blind randomization schedule. Ten (10) patients were assigned to each of three (3) treatment groups described as follows. Group 1 received 1.0 ml TP5 (50 mg/ml) subcutaneously three (3) times per week and 5.0 ml placebo intravenously once weekly for twelve (12) weeks. Group 2 received 1.0 ml placebo subcutaneously three (3) times per week and 5.0 ml TP5 (20 mg/ml) intravenously once weekly for twelve (12) weeks. Group 3 received 1.0 ml placebo subcutaneously three (3) times per week and 5.0 ml placebo intravenously once weekly for twelve (12) weeks. 1. Each patient received subcutaneous injections three (3) times per week and one intravenous injection per week for twelve weeks, according to the group randomization schedule described above. 2. All patients received a diary in which allergy medication (chlortrimeton) taken during the course of the study and symptoms related to Ragweed Hay Fever were documented. Patients received specific instructions pertaining to continued maintenance of their symptom and medication diaries. The diaries were reviewed weekly and returned upon termination of treatment. Each of the thirty subjects recorded twice daily the occurrence of five symptoms using the mutually exclusive scores "none", "mild", and "severe". The efficacy of treatment was determined by comparison of the average weekly number of mild and severe symptoms per subject. In one analysis, a score was created for each subject based upon the number of times certain symptoms were noted over the ten-week period of study. Each occurrence of a mild or severe symptom was scored as "1" and the average weekly score over the ten weeks for which data were collected was computed for each subject. Pair-wise comparisons were made among the three groups using a standard t-test. […] A more detailed analysis used a repeated measures analysis of variance, in which the total weekly symptoms were compared on a week-by-week basis. The results are presented in Table II and graphically in FIGS. 1 through 3. This analysis indicates high significance among the three groups with respect to severe symptoms and all symptoms.

## RKDVY [TP5, H-ARG-LYS-ASP-VAL-TYR-OH]
T lymphocytes
  differentiation of T lymphocytes (in words): selectively stimulate the differentiation of T lymphocytes
[1]; Group 1 (TP5 sc)
  Average number of symptoms per week per subject, Cough Mild: 0.14
  Average number of symptoms per week per subject, Cough Sev.: 0.02
  Average number of symptoms per week per subject, Itchy Eyes Mild: 2.45
  Average number of symptoms per week per subject, Itchy Eyes Sev.: 0.18
  Average number of symptoms per week per subject, Red Eyes Mild: 1.12
  Average number of symptoms per week per subject, Red Eyes Sev.: 0.12
  Average number of symptoms per week per subject, Runny Nose Mild: 3.51
  Average number of symptoms per week per subject, Runny Nose Sev.: 1.86
  Average number of symptoms per week per subject, Sneezing Mild: 2.97
  Average number of symptoms per week per subject, Sneezing Sev.: 0.46
[1]; Group 1, TP5 50 mg s.c. 3x/week, p vs placebo .1382
  Average # Weekly Symptoms, Severe: 2.64
[1]; Group 1, TP5 50 mg s.c. 3x/week, p vs placebo .1394
  Average # Weekly Symptoms, Total: 12.84
[1]; Group 1, TP5 50 mg s.c. 3x/week, p vs placebo .3059
  Average # Weekly Symptoms, Mild: 10.20
[1]; Group 1, thymopentin 50 mg subcutaneously three times per week, listed as Thymopentin
  hay fever symptoms compared with placebo group (in words): the difference from placebo is not statistically significant; also recorded: decreasing the number of severe hay fever symptoms
[1]; Group 1, thymopentin 50 mg subcutaneously three times per week, listed as thymopentin
  hay fever symptoms compared with placebo group (in words): experienced fewer symptoms than group 3; also recorded: effective regimens to palliate allergic symptoms
[1]; Group 1 TP5 s.c., week 3
  Total Mild & Severe Symptoms Combined, average weekly number: 5.78
  Total Mild Symptoms, average weekly number: 5.22
  Total Severe Symptoms, average weekly number: 0.56
[1]; Group 1 TP5 s.c., week 4
  Total Mild & Severe Symptoms Combined, average weekly number: 9.22
  Total Mild Symptoms, average weekly number: 8.11
  Total Severe Symptoms, average weekly number: 1.11
[1]; Group 1 TP5 s.c., week 5
  Total Mild & Severe Symptoms Combined, average weekly number: 9.78
  Total Mild Symptoms, average weekly number: 9.00
  Total Severe Symptoms, average weekly number: 0.78
[1]; Group 1 TP5 s.c., week 6
  Total Mild & Severe Symptoms Combined, average weekly number: 11.56
  Total Mild Symptoms, average weekly number: 10.11
  Total Severe Symptoms, average weekly number: 1.44
[1]; Group 1 TP5 s.c., week 7
  Total Mild & Severe Symptoms Combined, average weekly number: 14.44
  Total Mild Symptoms, average weekly number: 13.11
  Total Severe Symptoms, average weekly number: 1.33
[1]; Group 1 TP5 s.c., week 8
  Total Mild & Severe Symptoms Combined, average weekly number: 16.33
  Total Mild Symptoms, average weekly number: 14.44
  Total Severe Symptoms, average weekly number: 1.89
[1]; Group 1 TP5 s.c., week 9
  Total Mild & Severe Symptoms Combined, average weekly number: 19.67
  Total Mild Symptoms, average weekly number: 18.56
  Total Severe Symptoms, average weekly number: 1.11
[1]; Group 1 TP5 s.c., week 10
  Total Mild & Severe Symptoms Combined, average weekly number: 17.78
  Total Mild Symptoms, average weekly number: 15.22
  Total Severe Symptoms, average weekly number: 2.56
[1]; Group 1 TP5 s.c., week 11
  Total Mild & Severe Symptoms Combined, average weekly number: 16.89
  Total Mild Symptoms, average weekly number: 13.11
  Total Severe Symptoms, average weekly number: 3.78
[1]; Group 1 TP5 s.c., week 12
  Total Mild & Severe Symptoms Combined, average weekly number: 5.89
  Total Mild Symptoms, average weekly number: 5.67
  Total Severe Symptoms, average weekly number: 0.22
[1]; Group 2 (TP5 iv)
  Average number of symptoms per week per subject, Cough Mild: 0.48
  Average number of symptoms per week per subject, Cough Sev.: 0.03
  Average number of symptoms per week per subject, Itchy Eyes Mild: 0.84
  Average number of symptoms per week per subject, Itchy Eyes Sev.: 0.25
  Average number of symptoms per week per subject, Red Eyes Mild: 0.75
  Average number of symptoms per week per subject, Red Eyes Sev.: 0.08
  Average number of symptoms per week per subject, Runny Nose Mild: 3.03
  Average number of symptoms per week per subject, Runny Nose Sev.: 0.80
  Average number of symptoms per week per subject, Sneezing Mild: 2.33
  Average number of symptoms per week per subject, Sneezing Sev.: 0.61
[1]; Group 2, TP5 100 mg i.v. once weekly, p vs placebo .0145
  Average # Weekly Symptoms, Total: 9.20
[1]; Group 2, TP5 100 mg i.v. once weekly, p vs placebo .0232
  Average # Weekly Symptoms, Severe: 1.77
[1]; Group 2, TP5 100 mg i.v. once weekly, p vs placebo .0257
  Average # Weekly Symptoms, Mild: 7.43
[1]; Group 2, thymopentin 100 mg intravenously once per week, listed as Thymopentin
  hay fever symptoms compared with placebo group (in words): statistically significant difference from group 3; also recorded: decreasing the number of severe hay fever symptoms
[1]; Group 2, thymopentin 100 mg intravenously once per week, listed as thymopentin
  hay fever symptoms compared with placebo group (in words): This difference was statistically significant for group 2; also recorded: effective regimens to palliate allergic symptoms
[1]; Group 2 TP5 i.v., week 3
  Total Mild & Severe Symptoms Combined, average weekly number: 5.43
  Total Mild Symptoms, average weekly number: 4.43
  Total Severe Symptoms, average weekly number: 1.0
[1]; Group 2 TP5 i.v., week 4
  Total Mild & Severe Symptoms Combined, average weekly number: 8.86
  Total Mild Symptoms, average weekly number: 8.43
  Total Severe Symptoms, average weekly number: 0.43
[1]; Group 2 TP5 i.v., week 5
  Total Mild & Severe Symptoms Combined, average weekly number: 7.00
  Total Mild Symptoms, average weekly number: 6.71
  Total Severe Symptoms, average weekly number: 0.29
[1]; Group 2 TP5 i.v., week 6
  Total Mild & Severe Symptoms Combined, average weekly number: 10.86
  Total Mild Symptoms, average weekly number: 9.29
  Total Severe Symptoms, average weekly number: 1.57
[1]; Group 2 TP5 i.v., week 7
  Total Mild & Severe Symptoms Combined, average weekly number: 9.00
  Total Mild Symptoms, average weekly number: 8.00
  Total Severe Symptoms, average weekly number: 1.00
[1]; Group 2 TP5 i.v., week 8
  Total Mild & Severe Symptoms Combined, average weekly number: 11.00
  Total Mild Symptoms, average weekly number: 8.57
  Total Severe Symptoms, average weekly number: 2.43
[1]; Group 2 TP5 i.v., week 9
  Total Mild & Severe Symptoms Combined, average weekly number: 8.14
  Total Mild Symptoms, average weekly number: 7.71
  Total Severe Symptoms, average weekly number: 0.43
[1]; Group 2 TP5 i.v., week 10
  Total Mild & Severe Symptoms Combined, average weekly number: 5.14
  Total Mild Symptoms, average weekly number: 4.71
  Total Severe Symptoms, average weekly number: 0.43
[1]; Group 2 TP5 i.v., week 11
  Total Mild & Severe Symptoms Combined, average weekly number: 5.43
  Total Mild Symptoms, average weekly number: 5.14
  Total Severe Symptoms, average weekly number: 0.29
[1]; Group 2 TP5 i.v., week 12
  Total Mild & Severe Symptoms Combined, average weekly number: 1.71
  Total Mild Symptoms, average weekly number: 1.57
  Total Severe Symptoms, average weekly number: 0.14
[1]; double-blind study, route not specified
  alleviating the symptoms of allergic rhinitis compared to placebo (in words): statistically significant compared to placebo
[1]; general statement
  safety (in words): very safe drug
